# Measured values: patent US10946028B2, “Polymer conjugate of sulfoxide derivative-coordinated platinum(II) complex” (priority 2015, dated 2021)
# Where “and” joins values, the source holds several entries; their conditions need not be identical. Identical values can stand only once. Like-named read-outs stand apart in the source and are kept apart here.
# Experiments:
# [1] = test system: Human gastric cancer 4-1ST; experiment: Antitumor Test 3, human gastric cancer 4-1ST-transplanted mouse; assay type: in vivo, BALB/cA-nu/nu mice
# Source text: (§1) Human gastric cancer 4-1ST was subcultured and maintained subcutaneously in BALB/cA-nu/nu mice (hereinafter, nude mice). Human gastric cancer 4-1ST was purchased from Central Institute for Experimental Animals.
# Human gastric cancer 4-1ST was collected from subcutaneous sites of nude mice, and the tumors were finely cut into blocks each measuring about 3 mm on one side. The tumor blocks thus obtained were transplanted subcutaneously into the dorsal side of nude mice using a trocar. On the 17th day after transplantation, when the average tumor volume reached about 100 to 200 mm^3, various drugs were intravenously administered through the caudal vein. […] As a control drug, 1-OHP or cisplatin (CDDP) was administered once at a dose of 18 mg/kg or 10 mg/kg. Regarding the high amounts of administration of the administered compounds, the maximum tolerable dose (MTD dose) was employed in all cases. After the administration of the various drugs, the major axes (L) and the minor axes (W) of the tumors were measured over time using calipers, and the tumor volumes (L×W×W×0.5) were calculated. The test was carried out using four animals per group in all cases for a non-administered group and various drug-administered groups. For a period starting from the initiation of administration to the 21st day after administration, the T/C (%) values of the various drug-administered groups are presented in Table 5.
# [2] = Maximum tolerable dose (MTD dose) in the antitumor tests; assay type: in vivo, BALB/cA-nu/nu mice; conditions: administered once intravenously, nude mice
# Method: Human gastric cancer 4-1ST was collected from the subcutaneous sites of nude mice, and the tumors were finely cut into blocks each measuring about 3 mm on one side. The tumor blocks thus obtained were transplanted subcutaneously into the dorsal side of nude mice using a trocar. On the 18th day after transplantation, when the average tumor volume reached about 100 to 200 mm^3, various drugs were intravenously administered through the caudal vein. […] As control drugs, 1-OHP was administered once at a dose of 20 mg/kg, and cisplatin was administered once at a dose of 10 mg/kg. […]
# (§2) Human gastric cancer 4-1ST was collected from subcutaneous sites of nude mice, and the tumors were finely cut into blocks each measuring about 3 mm on one side. […] After the administration of the various drugs, the major axes (L) and the minor axes (W) of the tumors were measured over time using calipers, and the tumor volumes (L×W×W×0.5) were calculated. […]
# as §2
# [3] = test system: Human gastric cancer 4-1ST; experiment: Antitumor Test 1, human gastric cancer 4-1ST-transplanted mouse; assay type: in vivo, BALB/cA-nu/nu mice
# Source text: as §1
# Human gastric cancer 4-1ST was collected from the subcutaneous sites of nude mice, and the tumors were finely cut into blocks each measuring about 3 mm on one side. The tumor blocks thus obtained were transplanted subcutaneously into the dorsal side of nude mice using a trocar. On the 18th day after transplantation, when the average tumor volume reached about 100 to 200 mm^3, various drugs were intravenously administered through the caudal vein. […] As control drugs, 1-OHP was administered once at a dose of 20 mg/kg, and cisplatin was administered once at a dose of 10 mg/kg. Regarding the amounts of administration of 1-OHP and cisplatin, and the high amounts of administration of the various Example compounds, the maximum tolerable dose (MTD dose) was employed in all cases.
# After the administration of the various drugs, the major axes (L) and the minor axes (W) of the tumors were measured over time using calipers, and the tumor volumes (L×W×W×0.5) were calculated. The test was carried out using four animals per group in all cases for a non-administered group and various drug-administered groups. For a period starting from the initiation of administration to the 20th day after administration, the relative tumor volume (T/C (%)) of each of the drug-administered groups was calculated by the following formula, based on the relative tumor volume of the non-administered group as 100, as an index of the antitumor effect. T/C (%)=Relative tumor volume of administered group/relative tumor volume of non-administered group×100 Formula: […]
# [4] = Body weight change in Antitumor Test 3; assay type: in vivo; conditions: 18 mg/kg once i.v., body weight on day of initiation = 1
# Source text: Human gastric cancer 4-1ST was collected from subcutaneous sites of nude mice, and the tumors were finely cut into blocks each measuring about 3 mm on one side. The tumor blocks thus obtained were transplanted subcutaneously into the dorsal side of nude mice using a trocar. On the 17th day after transplantation, when the average tumor volume reached about 100 to 200 mm^3, various drugs were intravenously administered through the caudal vein. […] Regarding the high amounts of administration of the administered compounds, the maximum tolerable dose (MTD dose) was employed in all cases. After the administration of the various drugs, the major axes (L) and the minor axes (W) of the tumors were measured over time using calipers, and the tumor volumes (L×W×W×0.5) were calculated. The test was carried out using four animals per group in all cases for a non-administered group and various drug-administered groups.
# After the administration, the body weights of the mice were measured over time.
# DAN-G cells = experiment: Proliferation inhibition test, concentration/time dependency; assay type: cell-based, Human
# Method: Human pancreatic cancer cell line, DAN-G, was purchased from Asta Medica GmbH, and the cells were proliferated and subcultured in a recommended medium described in the pamphlet.
# For DAN-G cells that had been cultured and proliferated on a 10 cm dish for cell culture, the culture fluid was removed, and the cells were washed once with 5 ml of PBS (phosphate buffered physiological saline). Subsequently, 1 ml of 0.25% trypsin/0.05% EDTA (ethylenediaminetetraacetic acid)/PBS was added to the cells, and the mixture was left to stand for 5 minutes at 37° C. After it was confirmed that the cells had been detached from the dish, 9 ml of medium was added to the dish to disperse the cells, the dispersion was transferred into a 15 ml tube (Corning, Inc.), and the dispersion was centrifuged for 5 minutes at 1,000 rpm. A supernatant was removed, subsequently 10 ml of fresh medium was added to the tube, and the cells were suspended. A portion of the cells was stained with Trypan Blue, and the viable cell count was measured using a hemocytometer. The suspended cells were diluted with medium to a concentration of 2.6×10^4 cells/ml, and the cells were inoculated onto five sheets of 96 well plate (Plates A, B, C, D, and E) at a volume of 190 μl/well (5×10^3 cells/well).
# The cells were then cultured under the conditions of 37° C. and 5% CO2. Three replica wells were provided for each drug concentration.
# A test was performed under five different conditions by changing the drug addition time.
# For Plates A, B, C, D, and E that had been cultured for 72 hours as described above, the medium was removed, subsequently methanol was added to the plates, and the cells were thereby immobilized on the plates. After methanol was removed, a 0.05% Methylene Blue solution was added to the plate, and the cells were stained for 30 minutes. Methylene Blue was removed, any excess stain solution was washed with water, subsequently 3% hydrochloric acid was added to the plate at a volume of 200 μl/well, and thus Methylene Blue was extracted. The plates were left to stand for 2 hours or longer, and the absorbance at 660 nm was measured using a microplate reader (BENCHMARK PLUS, manufactured by Bio-Rad Laboratories, Inc.). Regarding the measured values, the average value of three replicas of a well for each drug concentration was taken. The proliferation inhibition ratio GI(x) % at a drug concentration x was calculated by the following formula from the absorbance values thus measured. GI(x)%=(1−(Ax−B)/(A0−B))×100
# [5] = test system: Human gastric cancer 4-1ST; experiment: Antitumor Test 2, human gastric cancer 4-1ST-transplanted mouse; assay type: in vivo, BALB/cA-nu/nu mice; conditions: 18 mg/kg once i.v.
# Source text: as §1
# Human gastric cancer 4-1ST was collected from subcutaneous sites of nude mice, and the tumors were finely cut into blocks each measuring about 3 mm on one side. The tumor blocks thus obtained were transplanted subcutaneously into the dorsal side of nude mice using a trocar. On the 18th day after transplantation, when the average tumor volume reached about 100 to 200 mm^3, various drugs were intravenously administered through the caudal vein. […] As a control drug, 1-OHP was administered once at a dose of 18 mg/kg. […] Regarding Example 3 compound, the dose was less than or equal to the MTD dose; however, the dissolution limit of the compound was administered. After the administration of the various drugs, the major axes (L) and the minor axes (W) of the tumors were measured over time using calipers, and the tumor volumes (L×W×W×0.5) were calculated. The test was carried out using four animals per group in all cases for a non-administered group and various drug-administered groups. For a period starting from the initiation of administration to the 21st day after administration, the T/C (%) values of the various drug-administered groups are presented in Table 4.
compound,measurement,setting,value
"N.N.[Cl][Pt][Cl] [Cisplatin, cisplatin]",T/C (%) on days after each administration,"[1]; 10 mg/kg once i.v., day 0",100%
same,T/C (%) on days after each administration,"[1]; 10 mg/kg once i.v., day 4",77%
same,T/C (%) on days after each administration,"[1]; 10 mg/kg once i.v., day 7",43%
same,T/C (%) on days after each administration,"[1]; 10 mg/kg once i.v., day 11",32%
same,T/C (%) on days after each administration,"[1]; 10 mg/kg once i.v., day 14",36%
same,T/C (%) on days after each administration,"[1]; 10 mg/kg once i.v., day 18",37%
same,T/C (%) on days after each administration,"[1]; 10 mg/kg once i.v., day 21",42%
same,Maximum tolerable dose (MTD dose),[2],10 mg/kg
same,T/C (%) on days after each administration,"[3]; 10 mg/kg once i.v., day 0",100%
same,T/C (%) on days after each administration,"[3]; 10 mg/kg once i.v., day 3",91%
same,T/C (%) on days after each administration,"[3]; 10 mg/kg once i.v., day 6",49%
same,T/C (%) on days after each administration,"[3]; 10 mg/kg once i.v., day 9",32%
same,T/C (%) on days after each administration,"[3]; 10 mg/kg once i.v., day 13",31%
same,T/C (%) on days after each administration,"[3]; 10 mg/kg once i.v., day 16",35%
same,T/C (%) on days after each administration,"[3]; 10 mg/kg once i.v., day 20",36%
"O=C1[O][Pt]2([NH][C@@H]3CCCC[C@H]3[NH]2)[O]C1=O [l-OHP, Oxaliplatin]",T/C (%) on days after each administration,"[1]; 18 mg/kg once i.v., day 0",100%
same,T/C (%) on days after each administration,"[1]; 18 mg/kg once i.v., day 4",84%
same,T/C (%) on days after each administration,"[1]; 18 mg/kg once i.v., day 7",52%
same,T/C (%) on days after each administration,"[1]; 18 mg/kg once i.v., day 11",50%
same,T/C (%) on days after each administration,"[1]; 18 mg/kg once i.v., day 14",50%
same,T/C (%) on days after each administration,"[1]; 18 mg/kg once i.v., day 18",60%
same,T/C (%) on days after each administration,"[1]; 18 mg/kg once i.v., day 21",57%
same,Maximum tolerable dose (MTD dose),[2]; listed as 1-OHP,20 mg/kg and 18 mg/kg
same,Relative body weight on days after administration,[4]; day 0,1.00
same,Relative body weight on days after administration,[4]; day 4,0.78
same,Relative body weight on days after administration,[4]; day 7,0.83
same,Relative body weight on days after administration,[4]; day 11,0.93
same,Relative body weight on days after administration,[4]; day 14,1.03
same,Relative body weight on days after administration,[4]; day 18,1.09
same,Relative body weight on days after administration,[4]; day 21,1.05
same,IC50,"DAN-G cells; drug exposure 6 hours, 72 hours total culture, concentration in terms of DACH-platin, read-out: IC50, 6 hours",9000 nM
same,IC50,"DAN-G cells; drug exposure 24 hours, 72 hours total culture, concentration in terms of DACH-platin, read-out: IC50, 24 hours",1800 nM
same,IC50,"DAN-G cells; drug exposure 48 hours, 72 hours total culture, concentration in terms of DACH-platin, read-out: IC50, 48 hours",900 nM
same,IC50,"DAN-G cells; drug exposure 72 hours, concentration in terms of DACH-platin, read-out: IC50, 72 hours",900 nM
same,IC50 (6 hours)/IC50 (72 hours),DAN-G cells; ratio of IC50 values,10.0
same,IC50,"DAN-G cells; read-out: IC50, 2 hour, drug exposure 2 hours, 72 hours total culture, concentration in terms of DACH-platin",44100 nM
same,T/C (%) on days after each administration,[5]; day 0,100%
same,T/C (%) on days after each administration,[5]; day 3,100%
same,T/C (%) on days after each administration,[5]; day 7,65%
same,T/C (%) on days after each administration,[5]; day 10,58%
same,T/C (%) on days after each administration,[5]; day 14,57%
same,T/C (%) on days after each administration,[5]; day 17,61%
same,T/C (%) on days after each administration,[5]; day 21,60%
same,T/C (%) on days after each administration,"[3]; 20 mg/kg once i.v., day 0",100%
same,T/C (%) on days after each administration,"[3]; 20 mg/kg once i.v., day 3",96%
same,T/C (%) on days after each administration,"[3]; 20 mg/kg once i.v., day 6",53%
same,T/C (%) on days after each administration,"[3]; 20 mg/kg once i.v., day 9",46%
same,T/C (%) on days after each administration,"[3]; 20 mg/kg once i.v., day 13",46%
same,T/C (%) on days after each administration,"[3]; 20 mg/kg once i.v., day 16",51%
same,T/C (%) on days after each administration,"[3]; 20 mg/kg once i.v., day 20",50%
